The values below come from ChEMBL document CHEMBL3739302, “Synthesis of 5-trifluoromethyl-2-sulfonylpyridine PPARβ/δ antagonists: Effects on the affinity and selectivity towards PPARβ/δ” (Bioorg Med Chem, 2016).

The target in experiment [1] is T1, Peroxisome proliferator-activated receptor alpha (Homo sapiens) (UniProt Q07869).
T1 sequence (whole entry): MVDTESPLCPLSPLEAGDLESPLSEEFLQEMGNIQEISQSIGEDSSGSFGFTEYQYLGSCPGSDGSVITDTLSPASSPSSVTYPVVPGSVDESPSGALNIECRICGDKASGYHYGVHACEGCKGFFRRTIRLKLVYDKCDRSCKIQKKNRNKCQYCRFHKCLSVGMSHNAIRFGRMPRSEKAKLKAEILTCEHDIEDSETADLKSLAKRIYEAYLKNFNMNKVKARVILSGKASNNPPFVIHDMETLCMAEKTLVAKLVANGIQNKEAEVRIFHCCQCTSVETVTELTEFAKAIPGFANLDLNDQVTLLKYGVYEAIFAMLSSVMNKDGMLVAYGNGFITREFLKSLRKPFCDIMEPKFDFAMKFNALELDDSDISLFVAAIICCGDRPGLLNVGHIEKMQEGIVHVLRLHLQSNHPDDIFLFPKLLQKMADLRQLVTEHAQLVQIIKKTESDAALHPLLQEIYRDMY
The experiment can be described thus: Binding affinity to GST-PPAR-alpha LBP (unknown origin) at 1 uM by TR-FRET assay.

Experiment [2] addresses T1, Peroxisome proliferator-activated receptor alpha (Homo sapiens). The experiment can be described thus: Binding affinity to GST-PPAR-alpha LBP (unknown origin) at 1 and 10 uM after 24 hrs by TR-FRET assay.
Experiment [3] concerns the target T2, Peroxisome proliferator-activated receptor delta (Homo sapiens, UniProt Q03181).
T2 sequence (Q03181 whole entry): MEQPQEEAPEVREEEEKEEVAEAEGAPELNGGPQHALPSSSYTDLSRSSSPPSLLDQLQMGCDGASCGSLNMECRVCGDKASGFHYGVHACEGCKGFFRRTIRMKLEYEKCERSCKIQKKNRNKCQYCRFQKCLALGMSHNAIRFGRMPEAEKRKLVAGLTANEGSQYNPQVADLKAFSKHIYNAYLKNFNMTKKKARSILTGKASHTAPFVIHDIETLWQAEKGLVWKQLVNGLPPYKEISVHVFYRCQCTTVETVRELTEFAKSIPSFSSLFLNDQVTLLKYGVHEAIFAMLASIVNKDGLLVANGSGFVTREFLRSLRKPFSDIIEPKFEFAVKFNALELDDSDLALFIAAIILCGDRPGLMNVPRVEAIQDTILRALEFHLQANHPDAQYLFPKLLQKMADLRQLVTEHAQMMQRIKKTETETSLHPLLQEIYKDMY
The experiment can be described thus: Binding affinity to GST-PPAR-beta/delta LBP (unknown origin) after 2 hrs by TR-FRET assay.

In experiment [4] the target is T2, Peroxisome proliferator-activated receptor delta. The experiment can be described thus: Binding affinity to GST-PPAR-beta/delta LBP (unknown origin) after 24 hrs by TR-FRET assay.
The target of experiment [5] is T3, Peroxisome proliferator-activated receptor gamma (Homo sapiens) (UniProt P37231).
T3 sequence (whole entry): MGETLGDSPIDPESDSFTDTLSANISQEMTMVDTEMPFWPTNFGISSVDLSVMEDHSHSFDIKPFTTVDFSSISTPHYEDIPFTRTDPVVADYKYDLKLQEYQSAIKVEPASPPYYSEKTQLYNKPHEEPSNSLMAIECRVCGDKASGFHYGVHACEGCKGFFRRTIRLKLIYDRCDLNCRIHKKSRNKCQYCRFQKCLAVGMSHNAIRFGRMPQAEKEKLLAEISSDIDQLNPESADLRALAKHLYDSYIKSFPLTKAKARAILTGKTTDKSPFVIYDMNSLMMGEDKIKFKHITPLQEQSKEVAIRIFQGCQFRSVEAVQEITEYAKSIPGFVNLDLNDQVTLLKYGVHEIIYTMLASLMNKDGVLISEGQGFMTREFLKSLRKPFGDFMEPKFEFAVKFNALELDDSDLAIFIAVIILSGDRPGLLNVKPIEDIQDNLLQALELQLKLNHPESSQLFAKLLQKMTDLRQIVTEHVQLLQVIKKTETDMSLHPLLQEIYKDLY
The experiment can be described thus: Binding affinity to GST-PPAR-gamma LBP (unknown origin) at 10 uM after 24 hrs by TR-FRET assay.

The target of experiment [6] is T2, Peroxisome proliferator-activated receptor delta. The experiment can be described thus: Binding affinity to GST-PPAR-beta/delta LBP (unknown origin) after 3 hrs by TR-FRET assay.
In experiment [7] the target is T1, Peroxisome proliferator-activated receptor alpha (Homo sapiens). The experiment can be described thus: Binding affinity to GST-PPAR-alpha LBP (unknown origin) at 1 and 10 uM after 1 hr by TR-FRET assay.
Experiment [8] concerns the target T2, Peroxisome proliferator-activated receptor delta. The experiment can be described thus: Binding affinity to GST-PPAR-beta/delta LBP (unknown origin) after 20 mins by TR-FRET assay.
For experiment [9] the target is unchanged. The experiment can be described thus: Binding affinity to GST-PPAR-beta/delta LBP (unknown origin) after 40 mins by TR-FRET assay.
Experiment [10] concerns the target T3, Peroxisome proliferator-activated receptor gamma (Homo sapiens). The experiment can be described thus: Binding affinity to GST-PPAR-gamma LBP (unknown origin) at 10 uM after 1 hr by TR-FRET assay.
Experiment [11] has the same target. The experiment can be described thus: Binding affinity to GST-PPAR-gamma LBP (unknown origin) at 1 uM after 1 hr by TR-FRET assay.
For experiment [12], the target named is T2, Peroxisome proliferator-activated receptor delta. The experiment can be described thus: Binding affinity to GST-PPAR-beta/delta LBP (unknown origin) after 1 hr by TR-FRET assay.
Experiment [13] deals with T4, Peroxisome proliferator-activated receptor delta (Homo sapiens) (UniProt Q03181).
T4 sequence (whole entry): T2 sequence (Q03181 whole entry)
The experiment can be described thus: Binding affinity to GST-PPAR-beta/delta LBP (unknown origin) at 1 uM after 1 hr by TR-FRET assay.

Experiment [14] concerns the target T3, Peroxisome proliferator-activated receptor gamma (Homo sapiens). The experiment can be described thus: Binding affinity to GST-PPAR-gamma LBP (unknown origin) at 1 uM after 24 hrs by TR-FRET assay.
In experiment [15] the target is T1, Peroxisome proliferator-activated receptor alpha (Homo sapiens). The experiment can be described thus: Binding affinity to GST-PPAR-alpha LBP (unknown origin) at 1 uM after 2 hrs by TR-FRET assay.

The source made the active and inactive calls. The rule behind the calls is not given here.

With `CC(C)C(=O)NCCS(=O)(=O)c1ccc(C(F)(F)F)cn1`, in experiment [1], the result was Active.

In the case of `O=C(NCCS(=O)(=O)c1ccc(C(F)(F)F)cn1)c1ccc(Cl)cc1`, the result in experiment [2] and in experiment [7] was inactive. Besides, the half-maximal inhibitory concentration (IC50) in [3] is 284 nM; in experiment [4] it was 1.21 nM; in experiment [6], 233 nM; in [8] it was 1330 nM; in experiment [9] it was 825 nM; in experiment [12], 648 nM. The result in experiment [5], in experiment [10] and in experiment [11] was Active.

In the case of `O=C(NCCS(=O)(=O)c1ccc(C(F)(F)F)cn1)c1nccc2ccccc12`, the result in experiment [1] and in experiment [11] was Active.

Turning to `O=C(NCCS(=O)(=O)c1ccc(C(F)(F)F)cn1)c1cccc2ccncc12`, the outcome in [1] was Active.

In the case of `O=C(NCCS(=O)(=O)c1ccc(C(F)(F)F)cn1)c1ccc2ccccc2c1`, the result in experiment [2] and in experiment [7] was inactive. The outcome in experiment [13], in experiment [1], in experiment [5], in experiment [10], in [11] and in experiment [14] was Active. Besides, the concentration for half-maximal inhibition (IC50) in [3] came out at 448 nM; in [6] it was 320 nM; in [8] it was 1930 nM; in experiment [9], 930 nM; in experiment [12] it was 751 nM.

For `O=C(NCCS(=O)(=O)c1ccc(C(F)(F)F)cn1)c1ccnc2ccccc12`, the result in [1] and in experiment [15] was Active.

For `Cc1nc(-c2ccc(C(F)(F)F)cc2)sc1C(=O)NCCS(=O)(=O)c1ccc(C(F)(F)F)cn1`, the result in experiment [2] and in experiment [7] was inactive. Further, the IC50 turned out to be 301 nM in experiment [3]; 284 nM in experiment [6]; 949 nM in experiment [8]; 581 nM in experiment [9]; 423 nM in experiment [12]. Moreover, the outcome in experiment [11] was Active.

On to `O=C(NCCS(=O)(=O)c1ccc(C(F)(F)F)cn1)c1ccc2cnccc2c1`, for which the result in experiment [1] was Active.

With `O=C(NCCS(=O)(=O)c1ccc(C(F)(F)F)cn1)c1ccc2c(c1)CCCC2`, the outcome in experiment [2] and in experiment [7] was inactive. The IC50 in experiment [3] was determined as 907 nM; in experiment [4], 271 nM; in [6], 598 nM; in [8], 4220 nM; in experiment [9] it was 1960 nM; in experiment [12] it was 1530 nM. The outcome in [5], in experiment [10], in experiment [11] and in [14] was Active.

As to `O=C(NCCS(=O)(=O)c1ccc(C(F)(F)F)cn1)c1cc2ccccc2cn1`, the outcome in experiment [1] was Active.

On to `O=C(NCCS(=O)(=O)c1ccc(C(F)(F)F)cn1)c1ccc2ccccc2n1`, for which the outcome in [1] was Active.

For `COc1ccc(C(=O)NCCS(=O)(=O)c2ccc(C(F)(F)F)cn2)cc1`, the outcome in experiment [13] and in [1] was Active.

As for `O=C(NCCS(=O)(=O)c1ccc(C(F)(F)F)cn1)c1cccc2cnccc12`, the result in experiment [1] was Active.

As to `O=C(c1ccc2ccccc2c1)N(CCS(=O)(=O)c1ccc(C(F)(F)F)cn1)Cc1ccccc1`, the outcome in [1] was Active.

For `O=C(CCCS(=O)(=O)c1ccc(C(F)(F)F)cn1)c1ccc2ccccc2c1`, in experiment [1], the outcome was Active.

As for `O=C(COc1ccccc1)NCCS(=O)(=O)c1ccc(C(F)(F)F)cn1`, the result in experiment [1] was Active.

Turning to `O=C(NCCS(=O)(=O)c1ccc(C(F)(F)F)cn1)c1cccc2c1CCCC2`, the outcome in [1] and in experiment [11] was Active.

`CN(CCS(=O)(=O)c1ccc(C(F)(F)F)cn1)C(=O)c1ccc2ccccc2c1`: the result in experiment [1] and in experiment [11] was Active.

For the molecule `CN1CCN(c2ccc(/C=C(\C#N)c3ccccc3Br)cc2)CC1`, the IC50 in experiment [3] came to 37 nM; in experiment [4] it was 48 nM; in experiment [6] it was 40.1 nM; in experiment [8], 29 nM; in experiment [9], 30.4 nM; in experiment [12] it was 32.7 nM.

Turning to `O=C(NCCS(=O)(=O)c1ccc(C(F)(F)F)cn1)c1ccccc1`, the result in experiment [1] was Active.

Turning to `O=C(NCCS(=O)(=O)c1ccc(C(F)(F)F)cn1)c1ccc2ncccc2c1`, the outcome in experiment [1] was Active.

Regarding `O=C(NCCS(=O)(=O)c1ccc(C(F)(F)F)cn1)c1cncc2ccccc12`, the result in experiment [1] was Active.

With `O=C(NCCS(=O)(=O)c1ccc(C(F)(F)F)cn1)c1ccc(F)cc1`, the outcome in experiment [13], in [1] and in experiment [11] was Active.

With `CCN(CCS(=O)(=O)c1ccc(C(F)(F)F)cn1)C(=O)c1ccc2ccccc2c1`, the result in [1] was Active.

With `CC(C)(C)C(=O)NCCS(=O)(=O)c1ccc(C(F)(F)F)cn1`, the outcome in experiment [1] was Active.

As to `O=C(NCCS(=O)(=O)c1ccc(C(F)(F)F)cn1)c1cccc2ncccc12`, in experiment [1], the outcome was Active.

As to `O=C(NCCS(=O)(=O)c1ccc(C(F)(F)F)cn1)c1cnc2ccccc2c1`, the result in experiment [2] and in experiment [7] was inactive. Also, the half-inhibitory concentration (IC50) in [3] is 2320 nM; in [4], 241 nM; in [6], 1430 nM; in experiment [9] it was 17600 nM; in [12] it was 6820 nM. The result in experiment [5], in experiment [10], in [11] and in [14] was Active.

Consider `O=C(CCCS(=O)(=O)c1ccc(C(F)(F)F)cn1)c1cccc2ccccc12`, for which, in experiment [1], the result was Active.

As to `O=C(NCCS(=O)(=O)c1ccc(C(F)(F)F)cn1)c1ccc2cccnc2c1`, the outcome in experiment [1] was Active.

Turning to `O=C(NCCS(=O)(=O)c1ccc(C(F)(F)F)cn1)c1cccc2ccccc12`, the outcome in experiment [13], in experiment [1] and in [11] was Active.

Take `O=C(NCCS(=O)(=O)c1ccc(C(F)(F)F)cn1)C12CC3CC(CC(C3)C1)C2`: the outcome in experiment [1] was Active.

Regarding `O=C(NCCS(=O)(=O)c1ccc(C(F)(F)F)cn1)c1cccc2cccnc12`, in experiment [1], the result was Active.

For the molecule `O=C(NCCS(=O)(=O)c1ccc(C(F)(F)F)cn1)c1cccnc1`, the result in experiment [1] was Active.

Turning to `O=C(NCCS(=O)(=O)c1ccc(C(F)(F)F)cn1)c1ccc2ccncc2c1`, the result in experiment [1] and in experiment [11] was Active.
